# Test results as given in paper PMC7997032, “Organic synthesis and anti-influenza A virus activity of cyclobakuchiols A, B, C, and D” (PLoS ONE, 2021).
# Where “and” joins values, the source holds several entries; their conditions need not be identical. Identical values can stand only once. Like-named read-outs stand apart in the source and are kept apart here.
# How the values were obtained:
# A/WSN/33 virus [1] = assay: Viability of influenza A virus-infected MDCK cells by naphthol blue-black staining; format: cell-based, influenza A H1N1 virus; settings: A/WSN/33, MOI 10, 72 h, 0.4–25 μM
# Description: MDCK cells were seeded on a 96-well plate (1 × 10^4 cells/well). 2–5 (0.4–25 μM) were mixed with A/PR/8/34, A/CA/7/09, or A/WSN/33 viruses in 10% FBS-supplemented growth medium at a multiplicity of infection (MOI) of ten. DMSO (0.004–1%) or 1 (0.4–25 μM) were used as negative or positive controls, respectively. […] After incubation, the cells were stained with naphthol blue–black, as previously described. Viable cells in each well were stained blue, whereas dead cells remained unstained.
# [2] = tested on: NAD(P)H quinone oxidoreductase 1 (Nqo1); assay: RT-qPCR of Nqo1 mRNA in MDCK cells with or without A/PR/8/34 virus; format: cell-based, canine; settings: for NQO1 Canis lupus mRNA, ave / NQO1 Canis lupus mRNA, individual replicates: 12.5uM, MDCK, relative to virus - DMSO; for NQO1 Canis lupus mRNA, ave: ave of #1-3 exp; for NQO1 Canis lupus mRNA, individual replicates: replicates 1-3 of #1, #2, #3 exp
# A/PR/8/34 viral NA = tested on: A/PR/8/34 viral NA; parameters: method as in PMID 26446794; settings: cited from earlier work
# A/WSN/33 virus [3] = assay: Influenza A viral growth assay (viral titer of culture media); format: cell-based, influenza A H1N1 virus; settings: for viral titer of conditioned media compared with DMSO: A/WSN/34 as printed, 12.5 μM
# A/PR/8/34 virus [4] = format: cell-based
# A/PR/8/34 virus [5] = assay: Immunofluorescence staining of viral NP in influenza A virus-infected MDCK cells; settings: for NP/DAPI (%) ave: average of 9 wells; for NP/DAPI (%): single well
# [6] = tested on: recombinant A/PR/8/34 viral HA protein; parameters: method as in PMID 26446794; settings: cited from earlier work
# A/PR/8/34 viral HA = tested on: A/PR/8/34 viral HA; parameters: method as in PMID 26446794; settings: cited from earlier work
# A/CA/7/09 viral HA = tested on: A/CA/7/09 viral HA; parameters: method as in PMID 26446794; settings: cited from earlier work
# A/PR/8/34 virus [7] = assay: Influenza A viral growth assay (viral titer of culture media); format: cell-based, influenza A H1N1 virus; parameters: viral titer of culture media, individual replicate / viral titer of culture media, ave: unit not given here
# A/CA/7/09 viral NA = tested on: A/CA/7/09 viral NA; parameters: method as in PMID 26446794; settings: cited from earlier work
# A/WSN/33 virus [8] = assay: Immunofluorescence staining of viral NP in influenza A virus-infected MDCK cells; settings: for percentage of influenza A NP-positive cells relative to DMSO: 24 h, Fig 4D; for NP/DAPI (%) ave: WSN
# Description: MDCK cells were seeded on a 96-well plate at 1 × 10^4 cells/well. […] Each mixture was added to the cells at 37°C in the presence of 5% CO2. […] After influenza A viral infection for 24 h, the cells were fixed with 4% paraformaldehyde in phosphate-buffered saline (PBS) for 30 min at 4°C and subsequently permeabilized by the addition of 0.3% Triton X-100 for 20 min at 25°C. A mouse primary antibody was used to detect the NP of A/PR/8/34 or A/WSN/33 viruses (FluA-NP 4F1; SouthernBiotech, AL, USA). Alexa Fluor488-conjugated goat anti-mouse IgG (H + L) antibody (Thermo Fisher Scientific) was used as the secondary antibody. Cell nuclei were then stained using diamidino-2-phenylindole (DAPI) (Thermo Fisher Scientific). Wells were photographed using a fluorescence microscope (BIOREVO BZ-X700; Keyence, Osaka, Japan). The proportion of influenza A NP-positive cells per DAPI-positive cells was calculated based on measurements recorded using BZ-X Analyzer software (Keyence).
# A/PR/8/34 virus [9] = assay: RT-qPCR of viral mRNAs (NP, NS1, PA, PB1, PB2, M2) in infected MDCK cells; format: cell-based, influenza A H1N1 virus
# Nrf2 = Nrf2 reporter assay (dual luciferase system) in MDCK cells; format: cell-based, canine
# MDCK cells = assay: MTT assay (cytotoxicity against MDCK cells); format: cell-based, canine; settings: ≤50 μM, 24 or 72 h
# Method in brief: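 Compounds at 0.8–100 μM (final DMSO up to 1%) in DMEM with 1% BSA and 4 mM L-glutamine incubated with cells 24 or 72 h at 37°C, 5% CO2. Viability measured by MTT.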
# [10] = 12.5 μM, 24h WB, average of 3 experiments
# [11] = 12.5 μM, 24h WB, single experiment
# [12] = 12.5 μM, 24 h post-infection, Fig 7C
# [13] = MDCK cells, PR8 virus, relative to DMSO (about 1), ave of #1-3 exp (9 values)
# [14] = MDCK cells, PR8 virus, relative to DMSO, replicates 1-3 of #1, #2, #3 exp
smiles,measurement,setting,value
"C=C[C@@](C)(/C=C/c1ccc(O)cc1)CCC=C(C)C [(+)-(S)-bakuchiol, reference compound]",naphthol blue-black staining of infected cells,A/WSN/33 virus [1],not stained
same,relative mRNA level of Nqo1 compared with DMSO,[2],significantly upregulated
same,"NQO1 Canis lupus mRNA, ave",[2]; virus + (PR8),2.213
same,"NQO1 Canis lupus mRNA, individual replicates",[2]; virus + (PR8),2.486 and 2.782 and 2.118 and 2.457 and 1.645 and 1.778 and 1.772 and 2.442 and 2.434
same,"NQO1 Canis lupus mRNA, ave",[2]; virus -,1.91
same,"NQO1 Canis lupus mRNA, individual replicates",[2]; virus -,1.8342 and 2.199 and 2.0999 and 1.939 and 1.851 and 1.6659 and 2.003 and 1.832 and 1.767
same,relative mRNA level of Nqo1 compared with DMSO,"[2]; without A/PR/8/34 virus, 12.5 μM, 24 h",significantly upregulated
same,inhibition of viral NA activity,A/PR/8/34 viral NA,did not inhibit
same,"viral titer of culture media, ave","A/WSN/33 virus [3]; A/WSN/33 (WSN), 12.5uM, 12h, average of #1-3 exp (n=9)",15811.1
same,viral titer of conditioned media compared with DMSO,A/WSN/33 virus [3]; 48–72 h,not reduced
same,viral titer of conditioned media compared with DMSO,A/WSN/33 virus [3]; 24 h,significantly reduced
same,expression of NP and NS1 proteins compared with DMSO (western blot),"A/PR/8/34 virus [4]; 12.5 μM, 8, 12 or 24 h post-infection",reduced
same,NP/b-actin ave,A/PR/8/34 virus [4]; [10],0.4577
same,NS1/b-actin ave,A/PR/8/34 virus [4]; [10],0.476
same,"NP mean (western blot signal intensity, ImageJ)",A/PR/8/34 virus [4]; [11],41.483 and 67.678 and 82.727
same,NS1/b-actin,A/PR/8/34 virus [4]; [11],0.411 and 0.4433 and 0.5737
same,"NS1 mean (western blot signal intensity, ImageJ)",A/PR/8/34 virus [4]; [11],69.425 and 77.937 and 55.734
same,expression level of NP protein compared with the 4 or 5 treatment groups,A/PR/8/34 virus [4]; [12],significantly reduced
same,expression levels of NP or NS1 proteins from signal intensities compared with DMSO,A/PR/8/34 virus [4]; [12],significantly reduced
same,percentage of influenza A NP-positive cells relative to DMSO,"A/PR/8/34 virus [5]; A/PR/8/34, 3.1 μM, 24 h, Fig 4B",significantly reduced
same,NP/DAPI (%) ave,"A/PR/8/34 virus [5]; A/PR/8/34, 3.13 uM",3.314%
same,NP/DAPI (%) ave,"A/PR/8/34 virus [5]; A/PR/8/34, 6.25 uM",1.176%
same,percentage of influenza A NP-positive cells compared with the 5-treatment,"A/PR/8/34 virus [5]; A/PR/8/34, 6.3 μM, 24 h, Fig 4B",significantly reduced
same,NP/DAPI (%) ave,"A/PR/8/34 virus [5]; A/PR/8/34, 12.5 uM",0.5619%
same,NP/DAPI (%),"A/PR/8/34 virus [5]; A/PR/8/34, 12.5 uM, listed as (+)-S-Bakuchiol",1.274% and 0.625% and 0.6742% and 0.2454% and 0.2653% and 0.5128% and 0.5703%
same,NP/DAPI (%),"A/PR/8/34 virus [5]; A/PR/8/34, 12.5 uM, listed as (+)-S-bakuchiol",0.4184%
same,NP/DAPI (%) ave,"A/PR/8/34 virus [5]; A/PR/8/34, 25 uM",0.5226%
same,percentage of influenza A NP-positive cells relative to DMSO,"A/PR/8/34 virus [5]; A/PR/8/34, 6.3–12.5 μM, 24 h, Fig 4B",significantly reduced
same,IC50,"A/PR/8/34 virus [5]; Influenza A virus, PR/8, MDCK, read-out: half maximal (50%) inhibitory concentration (IC50)",2.1 ± 1.2 µM
same,inhibition of trypsin digestion of recombinant HA protein,[6],did not inhibit
same,inhibition of hemagglutination of chicken red blood cells,A/PR/8/34 viral HA,did not inhibit
same,inhibition of hemagglutination of chicken red blood cells,A/CA/7/09 viral HA,did not inhibit
same,"viral titer of culture media, ave","A/PR/8/34 virus [7]; A/PR/8/34 (PR8), 12.5uM, 12h, average of #1-3 exp (n=9)",23333.3
same,viral titer of conditioned media compared with DMSO,"A/PR/8/34 virus [7]; A/PR/8/34, 12.5 μM, 12–72 h",significantly reduced
same,inhibition of viral NA activity,A/CA/7/09 viral NA,did not inhibit
same,percentage of influenza A NP-positive cells relative to DMSO,"A/WSN/33 virus [8]; A/WSN/33, 12.5 μM",significantly reduced
same,percentage of influenza A NP-positive cells relative to DMSO,"A/WSN/33 virus [8]; A/WSN/33, 3.1–6.3 μM",did not significantly reduce
same,NP/DAPI (%) ave,"A/WSN/33 virus [8]; 3.13uM, ave of 9 values (3 exp)",23.4639%
same,NP/DAPI (%) ave,"A/WSN/33 virus [8]; 6.25uM, ave of 9 values (3 exp)",22.221%
same,NP/DAPI (%) ave,"A/WSN/33 virus [8]; 12.5uM, ave of 9 values (3 exp)",22.092%
same,NP/DAPI (%) ave,"A/WSN/33 virus [8]; 25uM, ave of 9 values (3 exp)",25.1439%
same,NP/DAPI (%) ave,"A/WSN/33 virus [8]; ave summary, 3.13%",23.4639%
same,NP/DAPI (%) ave,"A/WSN/33 virus [8]; ave summary, 6.25%",22.221%
same,NP/DAPI (%) ave,"A/WSN/33 virus [8]; ave summary, 12.50%",22.092%
same,NP/DAPI (%) ave,"A/WSN/33 virus [8]; ave summary, 25%",25.1439%
same,reduction in the level of NP mRNA compared with 4 and 5,"A/PR/8/34 virus [9]; 12.5 μM, 24 h, Fig 6A",significantly stronger
same,reduction in the level of PB2 mRNA compared with 5,"A/PR/8/34 virus [9]; 12.5 μM, 24 h, Fig 6E",significantly stronger
same,"relative mRNA expression levels of viral genes (NP, NS1, PA, PB1, PB2, M2) compared with DMSO","A/PR/8/34 virus [9]; 12.5 μM, MOI 0.1, 24 h",significantly decreased
same,"PR8 NP gene expression qPCR, ave","A/PR/8/34 virus [9]; MDCK PR8, NP mRNA, relative (DMSO about 1), average of #1-3 exp (n=9)",0.01761
same,"PR8 NP gene expression qPCR, individual replicate","A/PR/8/34 virus [9]; MDCK PR8, NP mRNA, relative (DMSO about 1), replicates of #1-3 exp",0.006615 and 0.02549 and 0.02199 and 0.02377 and 0.03127 and 0.01502 and 0.01903 and 0.00944 and 0.005898
same,"PR8 NS1 gene expression qPCR, ave","A/PR/8/34 virus [9]; MDCK PR8, NS1 mRNA, relative (DMSO about 1), average of #1-3 exp (n=9)",0.01277
same,"PR8 NS1 gene expression qPCR, individual replicate","A/PR/8/34 virus [9]; MDCK PR8, NS1 mRNA, relative (DMSO about 1), replicates of #1-3 exp",0.005751 and 0.01688 and 0.01532 and 0.01756 and 0.02149 and 0.008029 and 0.01283 and 0.01159 and 0.005477
same,"PR8 PA gene expression qPCR, ave","A/PR/8/34 virus [9]; MDCK PR8, PA mRNA, relative (DMSO about 1), average of #1-3 exp (n=9)",0.01401
same,"PR8 PA gene expression qPCR, individual replicate","A/PR/8/34 virus [9]; MDCK PR8, PA mRNA, relative (DMSO about 1), replicates of #1-3 exp",0.007199 and 0.01835 and 0.01386 and 0.0158 and 0.019 and 0.01338 and 0.01452 and 0.01667 and 0.00733
same,"PR8 M2 gene expression qPCR, ave",A/PR/8/34 virus [9]; [13],0.01399
same,"PR8 PB1 gene expression qPCR, ave",A/PR/8/34 virus [9]; [13],0.009536
same,"PR8 PB2 gene expression qPCR, ave",A/PR/8/34 virus [9]; [13],0.01448
same,"PR8 M2 gene expression qPCR, individual replicates",A/PR/8/34 virus [9]; [14],0.006766 and 0.02094 and 0.01741 and 0.01624 and 0.02057 and 0.01274 and 0.01424 and 0.01232 and 0.004647
same,"PR8 PB1 gene expression qPCR, individual replicates",A/PR/8/34 virus [9]; [14],0.005288 and 0.01134 and 0.00694 and 0.008199 and 0.02025 and 0.01044 and 0.005541 and 0.01144 and 0.006386
same,"PR8 PB2 gene expression qPCR, individual replicates",A/PR/8/34 virus [9]; [14],0.00629 and 0.02178 and 0.01747 and 0.01955 and 0.0211 and 0.01165 and 0.01377 and 0.01287 and 0.005833
same,Nrf2 activation (reporter assay) in contrast to DMSO,"Nrf2; 12.5 μM, 24 h, MDCK cells",induce Nrf2 activation
same,"pNQO1-ARE-Luc NRF2 reporter assay, ave","Nrf2; 12.5uM, relative to DMSO trans+, ave of #1-3 exp",1.302
same,"pNQO1-ARE-Luc NRF2 reporter assay, individual replicates","Nrf2; 12.5uM, relative to DMSO trans+, two values each of #1, #2, #3 exp",1.091 and 1.274 and 1.491 and 1.4074 and 1.544 and 1.002
same,cell viability / toxicity (MTT),MDCK cells,not affected
